Calls of active or inactive are those of the source.
How the values were obtained:
[1] = M. tuberculosis H37Rv growth inhibitors, H37Rv strain (AID 1626); assay type: functional
Estrogen receptor = molecular target: T1, Estrogen receptor (Homo sapiens, UniProt P03372);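 note: potency for inhibiting coactivator peptide recruitment to the receptor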
T1 sequence (P03372 whole entry): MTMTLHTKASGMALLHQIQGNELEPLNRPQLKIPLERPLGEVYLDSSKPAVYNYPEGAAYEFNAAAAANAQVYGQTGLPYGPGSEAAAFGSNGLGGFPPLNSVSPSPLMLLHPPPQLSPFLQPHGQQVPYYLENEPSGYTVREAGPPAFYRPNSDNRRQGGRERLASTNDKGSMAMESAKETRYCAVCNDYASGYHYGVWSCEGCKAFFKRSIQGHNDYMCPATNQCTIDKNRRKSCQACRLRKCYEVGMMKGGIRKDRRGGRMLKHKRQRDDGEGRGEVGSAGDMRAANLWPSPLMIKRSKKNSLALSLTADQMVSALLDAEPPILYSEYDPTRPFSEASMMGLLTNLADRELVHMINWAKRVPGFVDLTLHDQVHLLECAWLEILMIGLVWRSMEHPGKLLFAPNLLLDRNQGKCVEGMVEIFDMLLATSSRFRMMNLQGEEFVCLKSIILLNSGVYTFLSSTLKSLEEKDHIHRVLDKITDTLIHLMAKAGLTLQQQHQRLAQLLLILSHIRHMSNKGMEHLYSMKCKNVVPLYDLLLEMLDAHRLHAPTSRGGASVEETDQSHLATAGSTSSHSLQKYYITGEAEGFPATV

Large T antigen = Large T antigen (Simian virus 40, UniProt P03070); assay type: functional, Betapolyomavirus macacae;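 note: Confirmatory-stage PubChem screen for compounds that inhibit SV40 T antigen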
Large T antigen, sequence (P03070 whole entry): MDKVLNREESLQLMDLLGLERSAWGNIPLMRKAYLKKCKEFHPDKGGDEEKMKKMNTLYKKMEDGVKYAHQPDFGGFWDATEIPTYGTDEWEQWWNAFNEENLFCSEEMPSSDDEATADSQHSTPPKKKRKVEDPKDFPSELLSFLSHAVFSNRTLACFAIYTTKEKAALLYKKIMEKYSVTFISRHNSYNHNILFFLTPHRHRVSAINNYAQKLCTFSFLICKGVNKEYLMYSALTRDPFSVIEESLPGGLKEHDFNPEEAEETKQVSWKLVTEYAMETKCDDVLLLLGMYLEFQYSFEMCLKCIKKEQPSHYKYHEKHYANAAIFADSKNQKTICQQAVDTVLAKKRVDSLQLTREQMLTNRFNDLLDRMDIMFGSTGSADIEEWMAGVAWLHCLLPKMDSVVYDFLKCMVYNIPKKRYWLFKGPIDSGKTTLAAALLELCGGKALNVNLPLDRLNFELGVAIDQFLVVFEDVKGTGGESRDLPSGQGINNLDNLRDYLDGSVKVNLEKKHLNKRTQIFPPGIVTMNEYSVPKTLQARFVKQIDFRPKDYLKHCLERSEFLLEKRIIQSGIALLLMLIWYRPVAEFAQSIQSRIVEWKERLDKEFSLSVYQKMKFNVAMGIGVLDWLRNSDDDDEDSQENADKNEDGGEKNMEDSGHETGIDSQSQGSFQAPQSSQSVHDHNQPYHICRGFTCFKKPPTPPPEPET

[2] = molecular target: Induced myeloid leukemia cell differentiation protein Mcl-1 (Homo sapiens, UniProt Q07820); experiment: blockers of MCL1 binding to BIM peptide – biochemical, fluorescence polarization, BIM-BH3 peptide, 1536-well, dose response (AID 2217)
Induced myeloid leukemia cell differentiation protein Mcl-1, sequence (Q07820 whole entry): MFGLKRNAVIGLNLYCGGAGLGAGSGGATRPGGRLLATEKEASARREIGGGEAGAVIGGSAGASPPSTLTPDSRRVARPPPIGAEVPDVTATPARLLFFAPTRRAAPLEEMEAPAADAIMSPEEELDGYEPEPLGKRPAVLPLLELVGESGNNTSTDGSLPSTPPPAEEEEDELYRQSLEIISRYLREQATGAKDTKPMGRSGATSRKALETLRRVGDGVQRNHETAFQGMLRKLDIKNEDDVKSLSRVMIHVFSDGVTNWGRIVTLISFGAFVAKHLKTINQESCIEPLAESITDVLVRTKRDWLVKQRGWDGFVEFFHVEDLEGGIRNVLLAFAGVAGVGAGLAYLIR

Estrogen receptor beta = Estrogen receptor beta (Homo sapiens, UniProt Q92731);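 note: recombinant ER-beta bound to coactivator SRC1 peptide in presence of estradiol agonist; inhibitors block coactivator peptide binding and lower the FRET signal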
Estrogen receptor beta, sequence (Q92731 whole entry): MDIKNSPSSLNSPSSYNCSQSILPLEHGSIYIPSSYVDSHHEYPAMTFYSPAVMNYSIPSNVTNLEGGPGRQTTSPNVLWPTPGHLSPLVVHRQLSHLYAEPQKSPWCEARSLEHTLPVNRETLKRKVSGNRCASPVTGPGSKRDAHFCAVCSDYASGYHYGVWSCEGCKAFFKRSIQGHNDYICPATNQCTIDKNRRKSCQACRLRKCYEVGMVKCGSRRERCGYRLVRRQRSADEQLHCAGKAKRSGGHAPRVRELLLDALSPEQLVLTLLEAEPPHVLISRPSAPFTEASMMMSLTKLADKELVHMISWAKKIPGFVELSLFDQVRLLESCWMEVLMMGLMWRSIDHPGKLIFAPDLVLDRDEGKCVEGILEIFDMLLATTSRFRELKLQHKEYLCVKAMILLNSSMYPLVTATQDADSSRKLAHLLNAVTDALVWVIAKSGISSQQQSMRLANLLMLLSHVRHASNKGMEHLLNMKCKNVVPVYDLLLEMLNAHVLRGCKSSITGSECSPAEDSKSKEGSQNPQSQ

Bcl-2-like protein 1 = Bcl-2-like protein 1 (Homo sapiens, UniProt Q07817); experiment: blockers of BCLXL peptide binding – biochemical, fluorescence polarization, 1536-well, selectivity assay for MCL1 inhibitor project, dose response (AID 2218)
Bcl-2-like protein 1, sequence (Q07817 whole entry): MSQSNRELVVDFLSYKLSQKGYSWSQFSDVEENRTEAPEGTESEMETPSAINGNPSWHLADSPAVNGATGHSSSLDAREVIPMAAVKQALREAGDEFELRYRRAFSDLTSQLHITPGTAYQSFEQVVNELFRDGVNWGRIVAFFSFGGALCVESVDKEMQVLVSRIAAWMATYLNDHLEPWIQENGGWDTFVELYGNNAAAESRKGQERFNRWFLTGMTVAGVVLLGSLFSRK

[3] = molecular target: T2, Voltage-gated N-type calcium channel alpha-1B subunit/Amyloid beta A4 precursor protein-binding family A member 1 (Homo sapiens, UniProt Q00975+Q02410); assay type: protein assay
T2 sequence (Q00975 whole entry): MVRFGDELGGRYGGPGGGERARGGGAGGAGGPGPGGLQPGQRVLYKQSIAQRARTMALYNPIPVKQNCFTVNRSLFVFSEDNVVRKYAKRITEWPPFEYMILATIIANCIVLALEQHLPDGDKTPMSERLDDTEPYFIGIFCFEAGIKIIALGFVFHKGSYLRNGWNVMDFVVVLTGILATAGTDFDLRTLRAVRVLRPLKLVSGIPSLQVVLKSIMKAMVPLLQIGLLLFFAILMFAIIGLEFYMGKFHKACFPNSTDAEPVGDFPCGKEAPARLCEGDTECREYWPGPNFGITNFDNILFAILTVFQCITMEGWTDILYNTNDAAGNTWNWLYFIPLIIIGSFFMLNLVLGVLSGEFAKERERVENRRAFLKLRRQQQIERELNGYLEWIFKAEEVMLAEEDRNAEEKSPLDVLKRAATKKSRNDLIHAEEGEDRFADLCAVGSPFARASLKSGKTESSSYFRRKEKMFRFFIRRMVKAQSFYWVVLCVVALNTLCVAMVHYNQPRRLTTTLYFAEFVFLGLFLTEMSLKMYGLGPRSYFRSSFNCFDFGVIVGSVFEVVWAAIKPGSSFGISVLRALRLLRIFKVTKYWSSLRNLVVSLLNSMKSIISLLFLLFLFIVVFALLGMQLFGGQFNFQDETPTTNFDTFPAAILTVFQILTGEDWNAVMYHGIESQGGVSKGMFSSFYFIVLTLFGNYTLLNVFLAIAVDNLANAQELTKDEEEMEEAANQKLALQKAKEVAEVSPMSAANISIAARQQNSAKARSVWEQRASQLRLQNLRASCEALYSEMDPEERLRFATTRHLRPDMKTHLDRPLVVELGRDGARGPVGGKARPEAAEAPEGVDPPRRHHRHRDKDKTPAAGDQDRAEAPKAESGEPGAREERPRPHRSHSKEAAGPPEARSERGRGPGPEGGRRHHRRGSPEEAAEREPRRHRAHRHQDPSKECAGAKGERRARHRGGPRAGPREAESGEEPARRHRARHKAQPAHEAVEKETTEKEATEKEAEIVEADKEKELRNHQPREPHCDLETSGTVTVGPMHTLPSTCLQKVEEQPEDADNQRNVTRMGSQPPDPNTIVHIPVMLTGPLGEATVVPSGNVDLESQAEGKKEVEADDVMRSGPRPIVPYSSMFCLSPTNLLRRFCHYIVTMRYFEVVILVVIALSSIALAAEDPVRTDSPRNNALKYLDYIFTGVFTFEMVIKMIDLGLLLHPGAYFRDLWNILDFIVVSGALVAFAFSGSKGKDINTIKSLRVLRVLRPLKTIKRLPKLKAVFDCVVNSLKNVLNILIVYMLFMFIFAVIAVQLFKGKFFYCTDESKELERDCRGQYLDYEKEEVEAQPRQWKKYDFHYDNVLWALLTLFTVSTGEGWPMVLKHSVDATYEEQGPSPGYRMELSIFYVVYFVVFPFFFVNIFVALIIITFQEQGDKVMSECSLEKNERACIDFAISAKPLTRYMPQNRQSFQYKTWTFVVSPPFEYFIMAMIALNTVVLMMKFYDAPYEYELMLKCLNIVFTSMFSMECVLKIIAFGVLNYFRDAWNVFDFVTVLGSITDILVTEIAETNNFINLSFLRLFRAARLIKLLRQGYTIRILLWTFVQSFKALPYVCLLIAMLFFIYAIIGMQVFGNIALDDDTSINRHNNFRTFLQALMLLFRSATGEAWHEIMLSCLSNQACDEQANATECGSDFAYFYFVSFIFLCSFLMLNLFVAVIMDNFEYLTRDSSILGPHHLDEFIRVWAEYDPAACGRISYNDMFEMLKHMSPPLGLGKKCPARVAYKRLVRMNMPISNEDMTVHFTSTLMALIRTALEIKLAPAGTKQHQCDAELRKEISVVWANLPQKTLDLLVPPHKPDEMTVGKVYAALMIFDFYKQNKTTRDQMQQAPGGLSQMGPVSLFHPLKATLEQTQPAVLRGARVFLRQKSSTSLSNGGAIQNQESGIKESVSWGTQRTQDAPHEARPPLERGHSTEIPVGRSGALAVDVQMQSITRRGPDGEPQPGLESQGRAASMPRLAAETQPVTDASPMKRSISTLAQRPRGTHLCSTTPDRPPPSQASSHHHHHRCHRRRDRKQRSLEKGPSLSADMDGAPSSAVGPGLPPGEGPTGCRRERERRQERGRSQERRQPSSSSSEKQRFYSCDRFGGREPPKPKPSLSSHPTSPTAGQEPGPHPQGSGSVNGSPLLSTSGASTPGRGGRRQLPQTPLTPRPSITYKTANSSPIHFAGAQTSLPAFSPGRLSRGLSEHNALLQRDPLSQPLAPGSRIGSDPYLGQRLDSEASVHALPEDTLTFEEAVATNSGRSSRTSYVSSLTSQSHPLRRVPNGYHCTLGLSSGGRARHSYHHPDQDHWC
T2 sequence (Q02410 whole entry): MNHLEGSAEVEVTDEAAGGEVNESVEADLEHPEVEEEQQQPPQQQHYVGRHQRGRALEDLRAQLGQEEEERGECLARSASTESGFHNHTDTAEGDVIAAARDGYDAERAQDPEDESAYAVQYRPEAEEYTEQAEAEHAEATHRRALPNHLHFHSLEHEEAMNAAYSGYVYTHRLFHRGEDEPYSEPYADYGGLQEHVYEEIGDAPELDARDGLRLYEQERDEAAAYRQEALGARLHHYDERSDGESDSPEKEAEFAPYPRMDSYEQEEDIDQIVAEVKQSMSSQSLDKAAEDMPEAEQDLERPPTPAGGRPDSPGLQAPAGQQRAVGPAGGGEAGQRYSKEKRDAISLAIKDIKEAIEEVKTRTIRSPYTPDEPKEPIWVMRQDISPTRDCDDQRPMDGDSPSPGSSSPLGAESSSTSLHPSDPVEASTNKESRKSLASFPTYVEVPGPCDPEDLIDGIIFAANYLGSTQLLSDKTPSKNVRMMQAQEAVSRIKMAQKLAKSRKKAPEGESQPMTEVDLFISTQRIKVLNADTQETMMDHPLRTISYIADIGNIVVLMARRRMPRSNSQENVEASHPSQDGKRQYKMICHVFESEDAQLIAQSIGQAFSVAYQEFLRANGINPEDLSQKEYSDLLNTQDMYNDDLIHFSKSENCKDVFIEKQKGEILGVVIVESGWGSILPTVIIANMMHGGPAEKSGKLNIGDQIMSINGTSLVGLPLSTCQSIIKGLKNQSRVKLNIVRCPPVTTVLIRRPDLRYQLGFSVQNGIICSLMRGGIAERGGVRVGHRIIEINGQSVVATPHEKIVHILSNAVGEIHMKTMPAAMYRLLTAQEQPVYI

[4] = molecular target: T2, Voltage-gated N-type calcium channel alpha-1B subunit/Amyloid beta A4 precursor protein-binding family A member 1; assay type: protein assay; remark: listed apart in the source
[5] = NIH3T3 cell viability loss – ATP luminescence, mouse fibroblasts, counter-screen, dose response (AID 2010); assay type: functional, cell-based;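 note: cells exposed to compound for about 90 hours before reading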
Streptokinase A = molecular target: T3, Streptokinase A (Streptococcus pyogenes serotype M1, UniProt P10520); experiment: viability-normalized secreted streptokinase activity reduction – plasminogen activation absorbance, OD405, dose response (AID 1914); assay type: functional, Streptococcus pyogenes M1 GAS;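 note: secreted streptokinase activity via plasminogen activation per viability signal from cell pellet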
T3 sequence (P10520 whole entry): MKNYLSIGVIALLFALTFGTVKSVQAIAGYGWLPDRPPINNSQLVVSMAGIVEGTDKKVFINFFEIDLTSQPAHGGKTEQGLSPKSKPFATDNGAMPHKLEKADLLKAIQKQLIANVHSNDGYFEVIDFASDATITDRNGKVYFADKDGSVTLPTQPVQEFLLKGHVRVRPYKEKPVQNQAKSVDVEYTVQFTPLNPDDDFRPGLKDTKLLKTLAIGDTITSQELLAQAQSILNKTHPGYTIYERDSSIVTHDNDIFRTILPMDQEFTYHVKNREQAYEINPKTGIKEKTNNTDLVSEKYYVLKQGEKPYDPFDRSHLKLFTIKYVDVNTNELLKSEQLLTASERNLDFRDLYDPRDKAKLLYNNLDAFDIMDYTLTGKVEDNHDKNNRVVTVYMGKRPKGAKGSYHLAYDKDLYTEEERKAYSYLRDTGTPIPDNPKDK

Streptococcus = experiment: GAS UMAA2166 growth inhibition – luminescence, BacTiterGlo, counter-screen for streptokinase expression inhibitor project, dose response (AID 1915); assay type: functional, organism-based;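 note: potency for reduction of bacterial viability or growth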
[6] = molecular target: T4, Microphthalmia-associated transcription factor (Homo sapiens, UniProt O75030); experiment: reducers of TRPM1 reporter luminescence, concentration series – cell-based, SK-MEL-5, cherry-picked, set 3, MITF inhibitor project, dose response (AID 493073); assay type: functional;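 note: SK-MEL-5 melanoma cells with luciferase driven by the MITF target TRPM1 promoter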
T4 sequence (O75030 whole entry): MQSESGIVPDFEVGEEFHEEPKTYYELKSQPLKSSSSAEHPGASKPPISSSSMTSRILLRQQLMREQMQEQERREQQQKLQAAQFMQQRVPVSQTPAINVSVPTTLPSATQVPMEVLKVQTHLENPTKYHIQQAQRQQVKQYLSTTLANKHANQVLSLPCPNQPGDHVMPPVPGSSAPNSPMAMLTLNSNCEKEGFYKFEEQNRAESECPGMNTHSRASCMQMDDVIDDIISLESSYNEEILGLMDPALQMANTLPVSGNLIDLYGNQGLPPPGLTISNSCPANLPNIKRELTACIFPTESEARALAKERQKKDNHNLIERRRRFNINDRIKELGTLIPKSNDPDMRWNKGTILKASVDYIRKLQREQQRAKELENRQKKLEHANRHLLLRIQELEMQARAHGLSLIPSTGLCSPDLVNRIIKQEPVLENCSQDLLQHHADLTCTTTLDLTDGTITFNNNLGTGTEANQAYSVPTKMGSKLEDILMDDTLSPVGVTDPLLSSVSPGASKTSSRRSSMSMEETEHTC

[7] = molecular target: ATP-dependent molecular chaperone HSP82 (Candida albicans (strain WO-1) (Yeast), UniProt C4YTQ8); experiment: steroid-induced GRE reporter decrease in yeast – S. cerevisiae, luminescence, Hsp90 inhibitor project, dose response (AID 2400); assay type: functional, cell-based;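 note: beta-galactosidase luminescence from glucocorticoid response element reporter as proxy for Hsp90 function; inhibitor potency where signal loss means Hsp90 inhibition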
[8] = NIH-3T3 fibroblast cytotoxicity, dose response, cytotoxicity control, cell-based, fluorescence, Alamar Blue, secondary assay (AID 2327); assay type: functional;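 note: NIH-3T3 mouse fibroblasts cultured with fluconazole at 8 µg/mL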
[9] = test system: Streptococcus sp. 'group A'; experiment: Streptococcus pyogenes SK(-)GAS viability under kanamycin – luminescence, BacTiterGlo, confirmation, counter-screen for streptokinase expression inhibitor project, dose response (AID 1900); assay type: functional, organism-based
[10] = viability of HCT116 lacking mutant beta-catenin – cell-based, human colon tumor, dose response (AID 1045); assay type: functional;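 note: HCT116 colon tumor cells with beta catenin knocked out; cells exposed to compound for 60 hours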
[11] = Trypanosoma cruzi growth suppression in host cells – NIH3T3 host cells, beta-gal luminescence, confirmation (AID 2044); assay type: functional, cell-based;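 note: intracellular parasites grown in NIH/3T3 mouse fibroblasts as host cells; luminescent beta-galactosidase reporter signal from transgenic T. cruzi replicating inside host cells; inhibitors lower the luminescence signal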
[12] = fluconazole-exposed Candida albicans growth modulators – fluorescence, retest, confirmation (AID 2467); assay type: functional, cell-based
[13] = molecular target: T5, Serine/threonine-protein phosphatase (Candida dubliniensis (strain CD36 / CBS 7987 / NCPF 3949 / NRRLY-17841) (Yeast), UniProt B9W6M3); experiment: blockers of CaCl2-induced CDRE-lacZ signaling – S. cerevisiae, luminescence, secondary, dose response (AID 2388); assay type: functional, cell-based;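 note: yeast reporter cells carrying a calcineurin-responsive lacZ construct stimulated with calcium chloride; luminescent beta-galactosidase reporter signal in whole cells rather than isolated phosphatase activity; potency for inhibition where a drop in reporter signal means calcineurin blockade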
T5 sequence (B9W6M3 whole entry): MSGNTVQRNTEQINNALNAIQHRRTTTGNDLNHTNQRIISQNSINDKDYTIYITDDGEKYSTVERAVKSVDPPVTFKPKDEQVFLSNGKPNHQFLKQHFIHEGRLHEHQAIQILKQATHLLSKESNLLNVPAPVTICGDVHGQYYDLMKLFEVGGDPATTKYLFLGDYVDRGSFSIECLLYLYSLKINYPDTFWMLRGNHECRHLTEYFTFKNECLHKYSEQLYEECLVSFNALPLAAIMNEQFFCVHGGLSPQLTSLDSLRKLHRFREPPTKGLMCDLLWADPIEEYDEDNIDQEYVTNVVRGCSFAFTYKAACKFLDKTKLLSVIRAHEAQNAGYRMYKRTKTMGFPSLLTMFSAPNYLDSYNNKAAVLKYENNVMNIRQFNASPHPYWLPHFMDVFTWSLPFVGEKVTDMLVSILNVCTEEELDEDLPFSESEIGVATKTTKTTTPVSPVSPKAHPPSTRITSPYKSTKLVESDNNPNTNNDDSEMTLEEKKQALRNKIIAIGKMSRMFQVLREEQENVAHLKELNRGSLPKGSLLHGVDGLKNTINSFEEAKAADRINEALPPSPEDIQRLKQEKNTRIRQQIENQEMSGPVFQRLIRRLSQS

[14] = viability of PTEN-deleted HCT116 cells – cell-based, HCT116 PTEN knockout, dose response (AID 1047); assay type: functional;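 note: HCT116 colon tumor cells with PTEN knocked out; cells exposed to compound for 60 hours before readout; potency for loss of cell viability measured by luminescence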
[15] = molecular target: T6, Zinc finger protein mex-5 (Caenorhabditis elegans, UniProt Q9XUB2); experiment: potency of MEX-5 RNA-binding blockers – biochemical, C. elegans, fluorescence polarization, dose response (AID 1960)
T6 sequence (Q9XUB2 whole entry): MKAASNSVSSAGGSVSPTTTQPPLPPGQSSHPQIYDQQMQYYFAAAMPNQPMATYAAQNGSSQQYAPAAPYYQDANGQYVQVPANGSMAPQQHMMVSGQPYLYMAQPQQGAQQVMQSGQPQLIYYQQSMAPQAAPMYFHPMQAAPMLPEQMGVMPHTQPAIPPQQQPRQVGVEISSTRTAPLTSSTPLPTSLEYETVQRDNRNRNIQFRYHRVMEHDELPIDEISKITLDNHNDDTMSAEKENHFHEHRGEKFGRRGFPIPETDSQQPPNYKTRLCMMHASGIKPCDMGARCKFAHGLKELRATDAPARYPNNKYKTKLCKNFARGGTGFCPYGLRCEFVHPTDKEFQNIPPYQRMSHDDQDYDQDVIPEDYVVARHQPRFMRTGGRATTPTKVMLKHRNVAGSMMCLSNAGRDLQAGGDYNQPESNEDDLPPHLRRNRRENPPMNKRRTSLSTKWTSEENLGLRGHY

[16] = molecular target: T7, RNA-binding protein pos-1 (Caenorhabditis elegans, UniProt G5EF15); experiment: disruptors of C. elegans POS-1 RNA interaction – biochemical, fluorescence polarization, dose response (AID 1964);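 note: purified POS-1 fused to maltose binding protein made in E. coli; potency of compounds blocking POS-1 binding to fluorescent RNA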
T7 sequence (G5EF15 whole entry): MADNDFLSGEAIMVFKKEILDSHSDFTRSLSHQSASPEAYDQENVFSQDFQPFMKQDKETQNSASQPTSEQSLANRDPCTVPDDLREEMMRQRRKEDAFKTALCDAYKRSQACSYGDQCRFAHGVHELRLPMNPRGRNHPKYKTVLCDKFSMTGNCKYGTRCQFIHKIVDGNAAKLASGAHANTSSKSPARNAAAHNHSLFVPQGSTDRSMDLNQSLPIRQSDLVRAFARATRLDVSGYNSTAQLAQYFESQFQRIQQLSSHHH

[17] = antibacterial activity against E. coli NEB5alpha – luminescence, counter-screen for MEX-5/POS-1 RNA-binding inhibitor project, dose response (AID 1959); assay type: functional

Structure (SMILES): COc1ccc(OCCCC(=O)Nc2cccc(SC)c2)cc1
- IC50 [1]: > 100 µM (active)

Structure (SMILES): CCOc1ccc(N2CSC3=C(C#N)C(c4ccco4)CC(=O)N3C2)cc1 (configuration not stated)
- IC50 (Estrogen receptor): > 50 µM (not active)
- IC50 (Large T antigen): 13.8 µM (active)
- IC50 [2]: > 109 µM (not active)
- IC50 (Estrogen receptor beta): > 50 µM (not active)
- IC50 (Bcl-2-like protein 1): > 109 µM (not active)
- IC50 [3]: 21.6 µM (active)
- IC50 [4]: 9.68 µM (active)

Structure (SMILES): O=C(CNc1ccc2ccccc2c1)N/N=C/c1ccc([N+](=O)[O-])o1
- EC50 [5]: > 60 µM (not active)
- EC50 (Streptokinase A): > 150 µM (not active)
- EC50 (cells): 0.019 µM (active)
- EC50 (Streptococcus): > 150 µM (not active)
- AC50 [6]: 4.95 µM (active)
- EC50 [7]: > 160 µM (inactive)
- EC50 [8]: > 160 µM (inactive)
- EC50 [9]: 11.1 µM (active)
- EC50 [10]: 15.9 µM (active)
- EC50 [11]: < 0.1 µM (active)
- EC50 [12]: 3.85 µM (active)
- EC50 [13]: > 180 µM (inactive)
- EC50 [14]: 14.2 µM (active)

Structure (SMILES): Cc1ccc(C(=O)C2=C(O)C(=O)N(Cc3ccco3)C2c2cccc(Br)c2)o1 (configuration not stated)
- EC50 (Streptokinase A): > 150 µM (not active)
- EC50 (Streptococcus): 11.2 µM (active)
- EC50 [15]: 35.6 µM (active)
- EC50 [9]: 6.16 µM (active)
- EC50 [16]: > 300 µM (not active)
- EC50 [17]: 18.3 µM (inconclusive)

— ChEMBL document CHEMBL1201862, “PubChem BioAssay data set” (2004)
